Results published in PubChem BioAssay (NCI).
Several values for one entry are separate records, joined by “and”; a condition that tells them apart may be missing. Identical values can stand only once.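 Exposure lasted 48 hours, with cells grown in 96-well plates and compounds tested at five concentrations. GI50: concentration for 50% inhibition of growth. TGI marks complete inhibition of growth.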

Columns and labels:
Assay in all cases: NCI anticancer screen, dose series, 48 h
[1] = test system: UO-31 renal
[2] = test system: NCI-H226 lung
[3] = test system: ACHN renal
[4] = test system: SK-MEL-5 melanoma
[5] = test system: SK-OV-3 ovarian
[6] = test system: CAKI-1 renal
[7] = test system: COLO 205 colon
[8] = test system: UACC-62 melanoma
[9] = test system: MOLT-4 leukemia
[10] = test system: LOX IMVI melanoma

SMILES	TGI [1] [µM]	TGI [2] [µM]	TGI [3]	TGI [4]	TGI [5] [µM]	TGI [6]	TGI [7]	TGI [8] [µM]	TGI [9]	TGI [10]	GI50 [1] [nM]	GI50 [2] [µM]	GI50 [3] [µM]	GI50 [4] [nM]	GI50 [5] [µM]	GI50 [6] [nM]	GI50 [7] [µM]	GI50 [8] [nM]	GI50 [9] [nM]	GI50 [10] [nM]
CC(Br)C(=O)NC(CO)C(=O)O (stereo not given)	> 100	> 100	> 100 µM	> 100 µM	> 100	> 100 µM	> 100 µM	> 100	> 100 µM	> 100 µM	–	–	–	–	–	–	–	–	–	–
COc1cc2c(cc1Nc1nc(N3CCc4ccccc43)c3cc[nH]c3n1)N(C(=O)CN(C)C)CC2	11.6	20.1	8.82 µM	11 µM	25	16.3 µM	14.3 µM	9.08	4.79 µM	10.2 µM	5260	11.3	4.4	4260	20.5	11000	5.4	4710	1880	1590
CCCCCOc1ccc(/C=N/Nc2cc(C)nc3ccc(Cl)cc23)cc1	2.93	3.68	3.13 µM	3.01 µM	3.08	3.03 µM	3.61 µM	3.15	3.36 µM	3.15 µM	1560	1.64	1.75	1630	1.65	1640	1.89	1680	1650	1690
N#CC1(c2ccc(NC(=O)c3cccnc3NCc3ccncc3)cc2)CCCC1	60.7	75.1	> 70.9 µM	18 µM	> 84.1	> 85.9 µM	33.5 µM	23.9	31.9 µM	29.2 µM	12600	12.3	12.4	4960	21.7	16800	7.43	8020	6260	14300
O=C(Nc1cccc(-n2cc(-c3ccncc3)c(-c3cc(O)cc(Cl)c3)n2)c1)c1ccc(N2CCOCC2)c(C(F)(F)F)c1	15.5	> 100	29.3 µM	8.49 µM	> 100	6 µM	64.5 µM	9.38	4.38 µM	4.61 µM	1410	28.5	1.84	2330	9.63	1100	17.5	1720	1110	1030
C[C@]12CC[C@H]3[C@@H](CCC4=CC(=O)CC[C@@]43C)[C@@H]1CC[C@@H]2c1csc(N)n1	11.2	23.7	40.6 µM	5.41 µM	33.3	13.4 µM	14.2 µM	17.8	11.2 µM	15.9 µM	2460	4.61	6.4	1690	12.5	1410	3.57	2680	2500	3380
COC1N(C2CC(O)C(CO)O2)C(=O)NC(=O)C1(F)Br (stereo not given)	> 100	> 100	50 µM and > 100 µM	50 µM and > 89.7 µM	> 100	50 µM and > 100 µM	50 µM and > 100 µM	> 100	15.8 µM and > 100 µM	50 µM and > 100 µM	> 50000	> 88.3	23.9	38200	99.4	24900	42.6	> 50000	13300	4470
COc1ccc2c(N)ncc(C#Cc3cc(C(=O)Nc4ccc(CN5CCN(C)CC5)c(C(F)(F)F)c4)cnc3C)c2c1	2.28	9.5	1.15 µM	5.32 µM	15	8.62 µM	4.48 µM	5.92	1.67 µM	1.08 µM	632	1.27	0.436	1860	1.7	1360	0.568	1300	396	505
COC(=O)C1C(=O)O[C@@H](c2ccc3c(c2)OCO3)C1C(=O)OC (mixture of isomers)	> 100	> 100	> 100 µM	> 100 µM	> 100	> 100 µM	> 100 µM	> 100	> 100 µM	> 100 µM	–	–	–	–	–	–	–	–	–	–
CCOC(=O)C1C(c2ccc(Cl)cc2Cl)NC(c2ccc(C)cc2)C(C(=O)OC)S1(=O)=O (stereo not given)	> 100	> 100	> 100 µM	> 100 µM	> 100	> 100 µM	> 100 µM	> 100	> 100 µM	> 100 µM	–	–	–	–	–	–	–	–	–	–
O=C(/C=C/C12c3ccccc3C(c3ccccc31)C1C(=O)NC(=O)C12)c1ccccn1 (stereo not given)	2.74	11.7	10.3 µM	3.2 µM	8.31	4.38 µM	3.62 µM	3.1	9.55 µM	2.51 µM	1320	2.98	2.88	1700	2.4	1660	1.88	1620	2110	1110
CCNc1nc(O)c(/C=C2\C=Nc3ncccc32)s1	> 100	28.7	> 100 µM	9.47 µM	9.12	> 100 µM	13 µM	9.11	12.6 µM	47.5 µM	3440	2.83	2.58	3000	2.86	3660	3.54	3010	3210	3230
Nc1ncnc2c1N=C(c1ccc3c(c1)OCO3)CC(c1ccc(Cl)cc1)N2 (stereo not given)	> 100	> 100	> 100 µM	> 100 µM	> 100	86.3 µM	> 100 µM	> 100	> 100 µM	33 µM	7470	44.8	8.25	85100	92.6	22700	15	72100	5850	10100
